What all share (experiment): KINOMEscan
Holding throughout (assay type): binding
What all share (conditions): read-out: % control activity remaining

One experiment concerns the target T1, PIK3CA(M1043I) (Homo sapiens, UniProt P42336, M1043I).
T1 construct: purchased Eurofins DiscoverX KINOMEscan

In the next experiment the target is T2, TESK1 (Homo sapiens, UniProt Q15569).
T2 construct: purchased Eurofins DiscoverX KINOMEscan

A further experiment concerns the target T3, CAMK1 (Homo sapiens, UniProt Q14012).
T3 construct: purchased Eurofins DiscoverX KINOMEscan

For experiment [1], the target named is T4, TYK2(JH2domain-pseudokinase) (Homo sapiens, UniProt P29597).
T4 construct: TYK2(JH2domain-pseudokinase); purchased Eurofins DiscoverX KINOMEscan

A further experiment has as its target T5, PRKX (Homo sapiens, UniProt P51817).
T5 construct: purchased Eurofins DiscoverX KINOMEscan
T5 sequence (P51817 1-358): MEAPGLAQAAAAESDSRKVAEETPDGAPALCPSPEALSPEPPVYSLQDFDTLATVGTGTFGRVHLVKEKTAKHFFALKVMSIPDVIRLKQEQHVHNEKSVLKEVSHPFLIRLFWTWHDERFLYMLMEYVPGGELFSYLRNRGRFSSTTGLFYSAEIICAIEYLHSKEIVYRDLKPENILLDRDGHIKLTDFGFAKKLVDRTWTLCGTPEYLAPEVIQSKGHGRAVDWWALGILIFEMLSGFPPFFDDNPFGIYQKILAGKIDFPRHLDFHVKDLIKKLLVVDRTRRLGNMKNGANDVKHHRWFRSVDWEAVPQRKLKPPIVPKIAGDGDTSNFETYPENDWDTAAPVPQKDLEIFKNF

Another experiment addresses T6, MAP4K3 (Homo sapiens, UniProt Q8IVH8).
T6 construct: purchased Eurofins DiscoverX KINOMEscan
T6 sequence (Q8IVH8 1-894): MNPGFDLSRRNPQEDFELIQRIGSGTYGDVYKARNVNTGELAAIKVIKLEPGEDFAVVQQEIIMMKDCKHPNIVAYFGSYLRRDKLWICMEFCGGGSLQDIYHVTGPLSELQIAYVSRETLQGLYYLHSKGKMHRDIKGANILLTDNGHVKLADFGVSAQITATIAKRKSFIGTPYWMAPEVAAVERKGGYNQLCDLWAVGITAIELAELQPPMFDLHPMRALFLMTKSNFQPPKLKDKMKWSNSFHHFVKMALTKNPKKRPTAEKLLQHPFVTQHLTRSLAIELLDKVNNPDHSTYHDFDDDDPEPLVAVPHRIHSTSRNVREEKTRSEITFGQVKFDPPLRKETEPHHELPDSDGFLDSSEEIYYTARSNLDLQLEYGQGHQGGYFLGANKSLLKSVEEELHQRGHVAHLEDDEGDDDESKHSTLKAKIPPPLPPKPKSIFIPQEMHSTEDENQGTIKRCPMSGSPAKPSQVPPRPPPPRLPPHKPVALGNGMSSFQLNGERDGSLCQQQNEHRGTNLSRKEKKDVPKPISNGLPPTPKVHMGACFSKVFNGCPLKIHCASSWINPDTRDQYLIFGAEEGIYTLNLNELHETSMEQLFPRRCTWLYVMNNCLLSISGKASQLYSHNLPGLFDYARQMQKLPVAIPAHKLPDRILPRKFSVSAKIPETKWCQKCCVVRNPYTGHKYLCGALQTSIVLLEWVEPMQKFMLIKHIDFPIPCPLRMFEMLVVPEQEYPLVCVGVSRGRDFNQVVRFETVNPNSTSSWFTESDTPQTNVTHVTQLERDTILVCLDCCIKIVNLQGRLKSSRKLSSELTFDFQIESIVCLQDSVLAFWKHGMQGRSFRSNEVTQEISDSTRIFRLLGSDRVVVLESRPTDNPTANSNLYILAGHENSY

The next experiment concerns the target T7, DMPK (Homo sapiens, UniProt Q09013).
T7 construct: purchased Eurofins DiscoverX KINOMEscan
T7 sequence (Q09013 1-629): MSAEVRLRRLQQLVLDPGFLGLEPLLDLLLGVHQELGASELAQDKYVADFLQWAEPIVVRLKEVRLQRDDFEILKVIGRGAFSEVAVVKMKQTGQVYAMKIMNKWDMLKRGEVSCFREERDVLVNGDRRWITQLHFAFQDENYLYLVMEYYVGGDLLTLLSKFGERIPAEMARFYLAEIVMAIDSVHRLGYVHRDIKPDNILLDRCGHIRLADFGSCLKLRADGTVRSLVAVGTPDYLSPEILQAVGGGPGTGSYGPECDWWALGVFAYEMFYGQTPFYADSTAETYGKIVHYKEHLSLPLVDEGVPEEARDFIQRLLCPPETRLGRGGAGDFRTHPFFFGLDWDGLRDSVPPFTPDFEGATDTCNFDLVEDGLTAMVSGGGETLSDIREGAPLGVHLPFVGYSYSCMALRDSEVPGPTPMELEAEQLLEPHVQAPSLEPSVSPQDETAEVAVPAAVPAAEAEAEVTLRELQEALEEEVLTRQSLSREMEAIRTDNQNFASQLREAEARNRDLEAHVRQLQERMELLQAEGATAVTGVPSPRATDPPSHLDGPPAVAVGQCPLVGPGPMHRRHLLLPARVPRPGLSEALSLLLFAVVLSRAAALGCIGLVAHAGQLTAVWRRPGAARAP

The target of the next experiment is T8, PKN1 (Homo sapiens, UniProt Q16512).
T8 construct: purchased Eurofins DiscoverX KINOMEscan

Among the data in article PMC6437697 (Journal of Medicinal Chemistry, 2019) are remaining binding values, retold here.

T1 sequence (P42336 whole entry M1043I): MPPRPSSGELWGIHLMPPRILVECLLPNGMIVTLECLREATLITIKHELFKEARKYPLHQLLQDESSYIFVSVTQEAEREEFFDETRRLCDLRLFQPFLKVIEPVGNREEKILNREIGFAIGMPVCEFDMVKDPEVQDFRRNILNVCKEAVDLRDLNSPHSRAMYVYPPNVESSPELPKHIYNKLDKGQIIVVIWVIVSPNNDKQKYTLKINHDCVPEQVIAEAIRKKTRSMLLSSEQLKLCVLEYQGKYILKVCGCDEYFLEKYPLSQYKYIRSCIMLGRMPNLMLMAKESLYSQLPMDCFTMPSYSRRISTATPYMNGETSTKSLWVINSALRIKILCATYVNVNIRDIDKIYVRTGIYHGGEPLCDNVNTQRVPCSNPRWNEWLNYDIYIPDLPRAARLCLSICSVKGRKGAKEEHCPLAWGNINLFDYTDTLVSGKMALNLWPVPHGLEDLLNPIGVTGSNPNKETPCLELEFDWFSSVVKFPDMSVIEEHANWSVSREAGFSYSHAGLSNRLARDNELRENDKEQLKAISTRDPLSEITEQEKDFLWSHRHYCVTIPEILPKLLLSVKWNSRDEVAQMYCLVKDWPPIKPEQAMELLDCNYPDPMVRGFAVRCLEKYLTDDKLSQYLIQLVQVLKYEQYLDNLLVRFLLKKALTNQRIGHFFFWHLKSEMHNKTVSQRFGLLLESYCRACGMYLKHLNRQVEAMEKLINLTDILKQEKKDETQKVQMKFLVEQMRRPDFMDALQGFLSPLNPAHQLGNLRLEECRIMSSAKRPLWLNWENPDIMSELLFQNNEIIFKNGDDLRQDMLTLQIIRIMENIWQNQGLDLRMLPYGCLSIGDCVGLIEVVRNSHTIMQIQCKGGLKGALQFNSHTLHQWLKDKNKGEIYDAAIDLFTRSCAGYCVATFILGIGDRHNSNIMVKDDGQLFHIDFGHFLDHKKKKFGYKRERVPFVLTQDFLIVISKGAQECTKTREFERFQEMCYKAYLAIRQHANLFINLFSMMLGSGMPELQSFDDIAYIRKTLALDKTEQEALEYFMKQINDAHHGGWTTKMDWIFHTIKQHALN
T8 sequence (Q16512 whole entry): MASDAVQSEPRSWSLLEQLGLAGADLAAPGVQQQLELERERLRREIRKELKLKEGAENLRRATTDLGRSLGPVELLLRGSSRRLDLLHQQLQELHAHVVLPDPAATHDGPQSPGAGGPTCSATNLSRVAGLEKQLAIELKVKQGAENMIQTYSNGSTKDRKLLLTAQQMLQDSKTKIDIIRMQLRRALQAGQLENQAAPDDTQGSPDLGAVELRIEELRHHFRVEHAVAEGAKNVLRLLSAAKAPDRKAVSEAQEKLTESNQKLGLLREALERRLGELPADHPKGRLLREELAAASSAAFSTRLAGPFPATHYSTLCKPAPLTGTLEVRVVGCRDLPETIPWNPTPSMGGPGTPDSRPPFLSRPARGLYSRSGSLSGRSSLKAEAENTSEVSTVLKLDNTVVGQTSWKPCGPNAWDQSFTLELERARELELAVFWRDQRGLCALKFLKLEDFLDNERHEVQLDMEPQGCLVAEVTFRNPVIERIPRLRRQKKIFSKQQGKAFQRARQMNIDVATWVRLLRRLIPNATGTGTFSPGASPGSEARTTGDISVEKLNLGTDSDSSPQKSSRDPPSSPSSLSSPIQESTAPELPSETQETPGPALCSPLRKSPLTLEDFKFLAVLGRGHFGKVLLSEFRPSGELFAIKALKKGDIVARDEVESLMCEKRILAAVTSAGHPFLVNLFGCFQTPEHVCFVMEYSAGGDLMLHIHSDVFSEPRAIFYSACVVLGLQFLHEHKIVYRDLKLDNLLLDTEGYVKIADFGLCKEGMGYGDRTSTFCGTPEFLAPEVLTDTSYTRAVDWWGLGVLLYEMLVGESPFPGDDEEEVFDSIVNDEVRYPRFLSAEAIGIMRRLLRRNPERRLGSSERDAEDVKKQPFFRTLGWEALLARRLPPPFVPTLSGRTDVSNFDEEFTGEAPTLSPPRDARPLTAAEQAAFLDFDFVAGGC
T3 sequence (Q14012 whole entry, looked up): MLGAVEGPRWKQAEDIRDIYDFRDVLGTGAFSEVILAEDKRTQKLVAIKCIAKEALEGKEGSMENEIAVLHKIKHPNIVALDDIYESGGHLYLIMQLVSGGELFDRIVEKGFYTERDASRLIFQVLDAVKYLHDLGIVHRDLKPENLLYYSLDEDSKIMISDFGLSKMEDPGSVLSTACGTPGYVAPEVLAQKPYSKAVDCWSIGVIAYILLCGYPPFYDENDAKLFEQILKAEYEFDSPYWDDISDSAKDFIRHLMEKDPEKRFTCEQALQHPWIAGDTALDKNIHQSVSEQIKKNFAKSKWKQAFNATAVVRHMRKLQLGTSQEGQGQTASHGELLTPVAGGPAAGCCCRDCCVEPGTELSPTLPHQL
T2 sequence (Q15569 whole entry): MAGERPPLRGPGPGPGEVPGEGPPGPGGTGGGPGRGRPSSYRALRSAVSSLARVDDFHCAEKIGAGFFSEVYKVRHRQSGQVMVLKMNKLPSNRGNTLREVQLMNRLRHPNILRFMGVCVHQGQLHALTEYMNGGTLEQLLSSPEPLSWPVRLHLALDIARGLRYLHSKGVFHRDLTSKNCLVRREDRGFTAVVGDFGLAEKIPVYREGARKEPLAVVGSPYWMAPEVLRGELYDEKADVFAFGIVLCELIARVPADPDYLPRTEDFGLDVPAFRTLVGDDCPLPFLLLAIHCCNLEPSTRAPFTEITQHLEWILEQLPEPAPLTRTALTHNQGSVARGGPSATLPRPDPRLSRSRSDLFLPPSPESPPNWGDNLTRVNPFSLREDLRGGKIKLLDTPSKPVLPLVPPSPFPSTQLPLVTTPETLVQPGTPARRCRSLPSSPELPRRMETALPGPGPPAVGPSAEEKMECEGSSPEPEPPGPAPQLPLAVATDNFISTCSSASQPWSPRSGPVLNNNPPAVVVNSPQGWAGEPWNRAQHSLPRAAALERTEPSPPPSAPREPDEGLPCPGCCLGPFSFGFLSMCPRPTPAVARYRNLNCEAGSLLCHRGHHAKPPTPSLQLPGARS
T4 sequence (P29597 556-888 limits assumed): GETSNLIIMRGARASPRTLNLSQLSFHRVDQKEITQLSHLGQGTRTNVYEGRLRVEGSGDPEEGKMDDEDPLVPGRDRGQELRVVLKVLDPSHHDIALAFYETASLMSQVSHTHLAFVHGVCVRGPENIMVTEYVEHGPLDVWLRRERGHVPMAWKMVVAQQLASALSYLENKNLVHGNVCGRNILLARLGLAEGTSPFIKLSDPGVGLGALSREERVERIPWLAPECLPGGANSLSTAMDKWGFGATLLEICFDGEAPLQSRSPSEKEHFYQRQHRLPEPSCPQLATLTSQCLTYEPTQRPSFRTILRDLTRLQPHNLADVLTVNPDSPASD

For the compound `Clc1cc(NCC2CC2)c2ncc(-c3ccc4[nH]ncc4c3)n2n1` [compound 2, 6-Chloro-N-(cyclopropylmethyl)-3-(1H-indazol-5-yl)imidazo[1,2-b]pyridazin-8-amine], the remaining binding at 1 µM at PIK3CA(M1043I) turned out to be 59%; at TESK1, 92%; at CAMK1, 100%; in experiment [1], 91%; on PRKX, 91%; at MAP4K3 it was 71%. Also, the remaining binding at 1 µM on DMPK turned out to be 84%; at PKN1, 100%.
Turning to `O=C(CN1CCOCC1)N[C@H]1CC[C@H](Nc2cc(Cl)nn3c(-c4ccc5[nH]ncc5c4)cnc23)CC1` [compound 26], the remaining binding at 1 µM on PIK3CA(M1043I) came to 81%; at TESK1, 91%; on CAMK1 it was 77%; in experiment [1], 99%; at PRKX it was 80%; at MAP4K3, 92%. Also, the remaining binding at 1 µM at DMPK is 99%; on PKN1, 71%.
As for `CN1CCC(CNc2cc(Cl)nn3c(-c4cc5nc(Nc6ccccc6)[nH]c5cc4F)cnc23)CC1` [compound 31, 6-Chloro-3-(6-fluoro-2-(phenylamino)-1H-benzo[d]imidazol-5-yl)-N-((1-methylpiperidin-4-yl)methyl)imidazo[1,2-b]pyridazin-8-amine], the remaining binding at 1 µM at PIK3CA(M1043I) is 78%; on TESK1, 100%; at CAMK1, 84%; in experiment [1] it was 73%; at PRKX, 100%; at MAP4K3 it was 99%. Further, the remaining binding at 1 µM amounted to 89% on DMPK and 91% at PKN1.
